Data as given in patent US11452718B2 (AVALYN PHARMA INC., priority 2012, dated 2022).
“Also recorded” adds a separate entry of the source. Like-named read-outs stand apart in the source and are kept apart here.

Experiments:
[1] = Extended-duration intratracheal and oral pharmacokinetic study; assay type: in vivo, Wistar rats
Description: Previous intratracheal aerosol delivery (see Example 6) was performed as a single bolus instillation just above the first bifurcation of the lung. For in vivo efficacy studies, an attempt was made to mimic tidal inhaled breathing by splitting the dose into equal parts and administering as before, but over a 2 minute period. […] Doses were prepared in 0.45% sodium chloride solution and were administered as described in Table 21.
Plasma samples and entire lungs were taken at pre-dose, 2, 4, 6, 10, 30, 60 and 120 minutes post dosing. Materials were extracted and pirfenidone quantitated as mcg/mL plasma and μg/gram lung tissue.

[2] = Stability assessment of pirfenidone formulations at 25° C./60RH and 40° C./75RH; assay type: physicochemical; details: for Measured Pirfenidone / mOsmol/kg / pH: time zero
Description: The sample was agitated until completely dissolved. Once dissolved, samples were filtered via syringe through a 0.22 μm PVDF filter.
Samples were refrigerated to reduce evaporative loss of volatile co-solvents (ethanol) during filtration and dispensing. An approximate 5.0-mL aliquot of each formulation was transferred to class A glass 6 ml containers with suitable closures (20 mm stopper). At least 8 containers are being maintained in the upright orientation at 25° C./60RH, and another 8 containers maintained at 40° C./75RH.

[3] = in vivo; cited from earlier work
[4] = Modeled human inhaled aerosol pirfenidone pharmacokinetics (FIG. 2, FIG. 5, Table 28)
Description: Aerosol deliver parameters for the FIGS. 2 and 5 models were based on high-efficiency, mesh-based nebulizer characterization (Table 12). […] Respirable delivered dose (RDD) calculated by the product of fine particle fraction (FPF, %<5 microns) and inhaled mass. […] This later dose was modeled to be delivered in 1 minute.

[5] = Pharmacokinetics and tissue distribution (lung, plasma, heart, kidney) of co-solvent formulations, bolus intratracheal aerosol; assay type: in vivo, Sprague-Dawley rats; details: for concentration at 4 min / concentration at 0.1 h / concentration at 0.167 h / concentration at 0.333 h: Sprague-Dawley, rat, lung, other: intratracheal bolus aerosol (nebulizing catheter), 4 mg/kg, about 4 mg/kg pirfenidone IT bolus aerosol, read-out: Analyte in lung tissue, Mean; for concentration at 4 min: 0.0667 hr
Description: Selected formulations were prepared for pharmacokinetic analysis following aerosol delivery to rat lung. […] Formulations prepared for this study are outlined in Table 9. […] The sample was agitated until completely dissolved. […] Filtered samples were analyzed by HPLC.

[6] = tested on: proliferation of fibroblasts; LPS-stimulated release of PDGF, TNF-alpha and TGF-beta1; collagen synthesis; details: depending on the assay conditions; cited from earlier work
[7] = Rubino et al., cited from earlier work
[8] = intratracheal aerosol 2.5 mg/kg, extended-duration (2 minutes)
[9] = intratracheal aerosol 5 mg/kg, extended-duration (2 minutes)
[10] = intratracheal aerosol 10 mg/kg, extended-duration (2 minutes)
[11] = 25° C./60% RH, 5 mM phosphate buffer pH 6.5 plus 1% (v/v) EtOH, 2% (v/v) PG, target pirfenidone 1 mg/mL
[12] = 25° C./60% RH, 5 mM phosphate buffer pH 6.5 plus 1% (v/v) EtOH, 2% (v/v) PG, target pirfenidone 15 mg/mL
[13] = 25° C./60% RH, 5 mM phosphate buffer pH 6.5 plus 4% (v/v) EtOH, 8% (v/v) PG, target pirfenidone 23 mg/mL
[14] = 25° C./60% RH, 5 mM phosphate buffer pH 6.5 plus 6% (v/v) EtOH, 12% (v/v) PG, target pirfenidone 30 mg/mL
[15] = 25° C./60% RH, 5 mM phosphate buffer pH 6.5 plus 8% (v/v) EtOH, 16% (v/v) PG, target pirfenidone 1 mg/mL
[16] = 25° C./60% RH, 5 mM phosphate buffer pH 6.5 plus 8% (v/v) EtOH, 16% (v/v) PG, target pirfenidone 38 mg/mL
[17] = 40° C./75% RH, 5 mM phosphate buffer pH 6.5 plus 1% (v/v) EtOH, 2% (v/v) PG, target pirfenidone 1 mg/mL
[18] = 40° C./75% RH, 5 mM phosphate buffer pH 6.5 plus 1% (v/v) EtOH, 2% (v/v) PG, target pirfenidone 15 mg/mL
[19] = 40° C./75% RH, 5 mM phosphate buffer pH 6.5 plus 4% (v/v) EtOH, 8% (v/v) PG, target pirfenidone 23 mg/mL
[20] = 40° C./75% RH, 5 mM phosphate buffer pH 6.5 plus 6% (v/v) EtOH, 12% (v/v) PG, target pirfenidone 30 mg/mL
[21] = 40° C./75% RH, 5 mM phosphate buffer pH 6.5 plus 8% (v/v) EtOH, 16% (v/v) PG, target pirfenidone 1 mg/mL
[22] = 40° C./75% RH, 5 mM phosphate buffer pH 6.5 plus 8% (v/v) EtOH, 16% (v/v) PG, target pirfenidone 38 mg/mL
[23] = 5 mM phosphate buffer pH 6.5 plus 1% (v/v) EtOH, 2% (v/v) PG, target pirfenidone 1 mg/mL
[24] = 5 mM phosphate buffer pH 6.5 plus 1% (v/v) EtOH, 2% (v/v) PG, target pirfenidone 15 mg/mL
[25] = 5 mM phosphate buffer pH 6.5 plus 4% (v/v) EtOH, 8% (v/v) PG, target pirfenidone 23 mg/mL
[26] = 5 mM phosphate buffer pH 6.5 plus 6% (v/v) EtOH, 12% (v/v) PG, target pirfenidone 30 mg/mL
[27] = 5 mM phosphate buffer pH 6.5 plus 8% (v/v) EtOH, 16% (v/v) PG, target pirfenidone 1 mg/mL
[28] = 5 mM phosphate buffer pH 6.5 plus 8% (v/v) EtOH, 16% (v/v) PG, target pirfenidone 38 mg/mL

## Cc1ccc(=O)n(-c2ccccc2)c1 [pirfenidone, 5-methyl-1-phenyl-2-(1H)-pyridone]
[1]; extended-duration intratracheal aerosol or oral gavage
  adverse events: No adverse events were noted
[1]; [8]
  Lung Tissue AUC(0-2 hr): 3.5 µg·h/g
  Lung Tissue Cmax: 14.4 μg/gram
[1]; [9]
  Lung Tissue AUC(0-2 hr): 6.6 µg·h/g
  Lung Tissue Cmax: 27.9 μg/gram
[1]; [10]
  Lung Tissue AUC(0-2 hr): 14.5 µg·h/g
  Lung Tissue Cmax: 61.1 μg/gram
[1]; oral gavage 10 mg/kg
  Lung Tissue AUC(0-2 hr): 4.9 µg·h/g
  Lung Tissue Cmax: 3.5 μg/gram
[1]; oral gavage 30 mg/kg
  Lung Tissue AUC(0-2 hr): 13.5 µg·h/g
  Lung Tissue Cmax: 9.8 μg/gram
[1]; oral gavage 100 mg/kg
  Lung Tissue AUC(0-2 hr): 27.9 µg·h/g
  Lung Tissue Cmax: 33.6 μg/gram
[2]; [11]
  Pirfenidone (mg/mL) at Time = 0: 1.0 mg/mL
  Pirfenidone (mg/mL) at Time = 1 month: 1.0 mg/mL
  Pirfenidone (mg/mL) at Time = 3 month: 1.0 mg/mL
  Pirfenidone (mg/mL) at Time = 6 month: 1.0 mg/mL
[2]; [12]
  Pirfenidone (mg/mL) at Time = 0: 16.1 mg/mL
  Pirfenidone (mg/mL) at Time = 1 month: 15.1 mg/mL
  Pirfenidone (mg/mL) at Time = 3 month: 14.9 mg/mL
  Pirfenidone (mg/mL) at Time = 6 month: 15.4 mg/mL
[2]; [13]
  Pirfenidone (mg/mL) at Time = 0: 24.1 mg/mL
  Pirfenidone (mg/mL) at Time = 1 month: 22.1 mg/mL
  Pirfenidone (mg/mL) at Time = 3 month: 22.3 mg/mL
  Pirfenidone (mg/mL) at Time = 6 month: 23.2 mg/mL
[2]; [14]
  Pirfenidone (mg/mL) at Time = 0: 30.3 mg/mL
  Pirfenidone (mg/mL) at Time = 1 month: 30.1 mg/mL
  Pirfenidone (mg/mL) at Time = 3 month: 29.6 mg/mL
  Pirfenidone (mg/mL) at Time = 6 month: 31.0 mg/mL
[2]; [15]
  Pirfenidone (mg/mL) at Time = 0: 1.0 mg/mL
  Pirfenidone (mg/mL) at Time = 1 month: 1.0 mg/mL
  Pirfenidone (mg/mL) at Time = 3 month: 1.0 mg/mL
  Pirfenidone (mg/mL) at Time = 6 month: 1.0 mg/mL
[2]; [16]
  Pirfenidone (mg/mL) at Time = 0: 38.9 mg/mL
  Pirfenidone (mg/mL) at Time = 1 month: 38.3 mg/mL
  Pirfenidone (mg/mL) at Time = 3 month: 38.0 mg/mL
  Pirfenidone (mg/mL) at Time = 6 month: 39.2 mg/mL
[2]; [17]
  Pirfenidone (mg/mL) at Time = 0: 1.0 mg/mL
  Pirfenidone (mg/mL) at Time = 1 month: 1.0 mg/mL
  Pirfenidone (mg/mL) at Time = 3 month: 1.0 mg/mL
  Pirfenidone (mg/mL) at Time = 6 month: 1.0 mg/mL
[2]; [18]
  Pirfenidone (mg/mL) at Time = 0: 16.1 mg/mL
  Pirfenidone (mg/mL) at Time = 1 month: 15.1 mg/mL
  Pirfenidone (mg/mL) at Time = 3 month: 14.8 mg/mL
  Pirfenidone (mg/mL) at Time = 6 month: 15.5 mg/mL
[2]; [19]
  Pirfenidone (mg/mL) at Time = 0: 24.1 mg/mL
  Pirfenidone (mg/mL) at Time = 1 month: 22.4 mg/mL
  Pirfenidone (mg/mL) at Time = 3 month: 22.1 mg/mL
  Pirfenidone (mg/mL) at Time = 6 month: 23.3 mg/mL
[2]; [20]
  Pirfenidone (mg/mL) at Time = 0: 30.3 mg/mL
  Pirfenidone (mg/mL) at Time = 1 month: 30.3 mg/mL
  Pirfenidone (mg/mL) at Time = 3 month: 30.0 mg/mL
  Pirfenidone (mg/mL) at Time = 6 month: 31.1 mg/mL
[2]; [21]
  Pirfenidone (mg/mL) at Time = 0: 1.0 mg/mL
  Pirfenidone (mg/mL) at Time = 1 month: 1.0 mg/mL
  Pirfenidone (mg/mL) at Time = 3 month: 1.0 mg/mL
  Pirfenidone (mg/mL) at Time = 6 month: 1.0 mg/mL
[2]; [22]
  Pirfenidone (mg/mL) at Time = 0: 38.9 mg/mL
  Pirfenidone (mg/mL) at Time = 1 month: 38.4 mg/mL
  Pirfenidone (mg/mL) at Time = 3 month: 38.0 mg/mL
  Pirfenidone (mg/mL) at Time = 6 month: 37.9 mg/mL
[2]; [23]
  Measured Pirfenidone: 1.0 mg/mL
  mOsmol/kg: 452 mOsmol/kg
  pH: 6.69
[2]; [24]
  Measured Pirfenidone: 16.1 mg/mL
  mOsmol/kg: 512 mOsmol/kg
  pH: 6.65
[2]; [25]
  Measured Pirfenidone: 24.1 mg/mL
  pH: 6.78
[2]; [26]
  Measured Pirfenidone: 30.3 mg/mL
  mOsmol/kg: 2863 mOsmol/kg
  pH: 6.90
[2]; [27]
  Measured Pirfenidone: 1.0 mg/mL
  mOsmol/kg: 3590 mOsmol/kg
  pH: 6.98
[2]; [28]
  Measured Pirfenidone: 38.9 mg/mL
  mOsmol/kg: 3750 mOsmol/kg
  pH: 7.04
[3]
  administered dose excreted in the urine: about 80%
[4]; 2.5 mg RDD inhaled over 1 minute, human model
  lung tissue Cmax compared to the 801 mg oral pirfenidone dose: equivalent
[4]; 29 mg RDD, 3 minute tidal-inhaled nebulized dose
  possible achieved human lung tissue Cmax: 43.2 mcg/gram lung tissue
[4]; 120 mg RDD inhaled over 5 minutes, human model
  plasma AUC compared to the 801 mg oral pirfenidone dose: equivalent
[5]; Group 1
  concentration at 4 min: 10400 ng/g
  concentration at 0.1 h: 7530 ng/g
  concentration at 0.167 h: 5360 ng/g
  concentration at 0.333 h: 4150 ng/g
[5]; Group 2
  concentration at 4 min: 8530 ng/g
  concentration at 0.1 h: 5980 ng/g
  concentration at 0.167 h: 5710 ng/g
  concentration at 0.333 h: 3790 ng/g
[5]; Group 3
  concentration at 4 min: 17300 ng/g
  concentration at 0.1 h: 7340 ng/g
  concentration at 0.167 h: 6160 ng/g
[5]; Group 4
  concentration at 4 min: 7770 ng/g
  concentration at 0.1 h: 7500 ng/g
  concentration at 0.167 h: 5230 ng/g
[5]; Group 5
  concentration at 4 min: 10700 ng/g
  concentration at 0.1 h: 5830 ng/g
  concentration at 0.167 h: 8780 ng/g
[5]; Group 6
  concentration at 4 min: 7930 ng/g
  concentration at 0.1 h: 6830 ng/g
  concentration at 0.167 h: 5170 ng/g
[5]; about 4 mg/kg intratracheal aerosol, co-solvent formulations
  adverse events: No adverse events were noted
[6]
  lower end of concentrations at which in vitro activities were evident: about 30 microM; also recorded: about 5.5 mcg/mL
  upper end of concentrations at which in vitro activities were evident: about 10 mM; also recorded: about 1.85 mg/mL
[7]; lung tissue (derived solely from plasma T1/2), aerosol 47 mg RDD, 2009 fasted-state
  T1/2 beta: 2.5 h
[7]; lung tissue (derived solely from plasma T1/2), oral 801 mg, fasted-state, 2009
  T1/2 beta: 2.5 h
[7]; lung tissue (derived solely from plasma T1/2), oral 801 mg, fed-state, 2009
  T1/2 beta: 2.4 h
[7]; plasma, aerosol 47 mg RDD, 2009 fasted-state
  T1/2 beta: 2.5 h
[7]; plasma, oral 801 mg, fasted-state, 2009
  T1/2 beta: 2.5 h
[7]; plasma, oral 801 mg, fed-state, 2009
  T1/2 beta: 2.4 h
